These results are taken from US20080051429A1, “USE OF 4-AMINO-PIPERIDINES FOR TREATING SLEEP DISORDERS” (priority 2006, published 2008).

One assay concerns the target T1, 5-HT2A receptor (Homo sapiens, UniProt P28223).
T1 construct: expressed in transfected cells; host or cells: NIH3T3 cells, pSI expression vector
Description: R-SAT functional receptor assay. The format is cell-based.

In the next assay the target is T2, alpha1b/B (Mesocricetus auratus, UniProt P18841).
T2 construct: expressed in transfected cells
T2 sequence (P18841 whole entry): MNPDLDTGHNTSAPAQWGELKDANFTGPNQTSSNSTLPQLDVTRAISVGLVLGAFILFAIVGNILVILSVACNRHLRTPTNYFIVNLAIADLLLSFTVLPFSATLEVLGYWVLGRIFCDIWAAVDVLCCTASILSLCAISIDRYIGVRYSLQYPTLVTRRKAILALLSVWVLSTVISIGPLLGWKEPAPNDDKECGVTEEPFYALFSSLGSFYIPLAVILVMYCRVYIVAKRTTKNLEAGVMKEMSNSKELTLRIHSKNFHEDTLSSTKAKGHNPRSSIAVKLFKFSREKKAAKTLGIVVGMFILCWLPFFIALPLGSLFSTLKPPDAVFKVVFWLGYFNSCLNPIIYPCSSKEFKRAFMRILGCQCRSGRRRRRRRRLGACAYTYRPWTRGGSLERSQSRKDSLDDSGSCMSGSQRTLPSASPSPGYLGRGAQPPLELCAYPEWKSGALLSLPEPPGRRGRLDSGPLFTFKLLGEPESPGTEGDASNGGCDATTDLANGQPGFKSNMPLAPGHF
As to the kind of experiment: R-SAT selectivity profile. It counts as cell-based, hamster. On the procedure: The functional receptor assay, Receptor Selection and Amplification Technology (R-SAT), was used (with minor modifications from that previously described U.S. Pat. No. 5,707,798) to screen compounds for efficacy at the 5-HT2A receptor. Briefly, NIH3T3 cells were grown in 96 well tissue culture plates to 70-80% confluence. Cells were transfected for 12-16 hours with plasmid DNAs using superfect (Qiagen Inc.) as per manufacture's protocols. R-SAT's were generally performed with 50 ng/well of receptor and 20 ng/well of Beta-galactosidase plasmid DNA. All receptor and G-protein constructs used were in the pSI mammalian expression vector (Promega Inc) as described in U.S. Pat. No. 5,707,798. The 5HT2A receptor gene was amplified by nested PCR from brain cDNA using the oligodeoxynucleotides based on the published sequence (see Saltzman et. al. Biochem. Biophys. Res. Comm. 181:1469-78 (1991)). Large-scale transfections, cells were transfected for 12-16 hours, then trypsinized and frozen in DMSO. […] Media was then removed from the plates and marker gene activity was measured by the addition of the beta-galactosidase substrate ONPG (in PBS with 5% NP-40). The resulting colorimetric reaction was measured in a spectrophotometric plate reader (Titertek Inc.)at […]. All data were analyzed using the computer program XLFit (IDBSm). […]

Assay [1] deals with T3, 5HT1A (Rattus norvegicus, UniProt P19327).
T3 construct: expressed in transfected cells
T3 sequence (P19327 whole entry): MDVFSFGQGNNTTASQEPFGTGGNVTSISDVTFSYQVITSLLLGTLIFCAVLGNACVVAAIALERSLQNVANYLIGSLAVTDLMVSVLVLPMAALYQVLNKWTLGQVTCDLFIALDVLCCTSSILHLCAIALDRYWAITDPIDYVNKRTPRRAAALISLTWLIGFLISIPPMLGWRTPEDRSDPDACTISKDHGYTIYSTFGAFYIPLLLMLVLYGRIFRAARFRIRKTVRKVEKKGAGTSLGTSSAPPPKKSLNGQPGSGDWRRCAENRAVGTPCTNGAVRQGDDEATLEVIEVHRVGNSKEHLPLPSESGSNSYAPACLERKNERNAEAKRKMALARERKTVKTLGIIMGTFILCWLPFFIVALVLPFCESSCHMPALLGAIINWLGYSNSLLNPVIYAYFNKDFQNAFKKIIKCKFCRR
Description: R-SAT selectivity profile. It counts as cell-based. The following applies: antagonist. Here is the method:
(§1) The functional receptor assay, Receptor Selection and Amplification Technology (R-SAT), was used (with minor modifications from that previously described U.S. Pat. No. 5,707,798) to screen compounds for efficacy at the 5-HT2A receptor. Briefly, NIH3T3 cells were grown in 96 well tissue culture plates to 70-80% confluence. Cells were transfected for 12-16 hours with plasmid DNAs using superfect (Qiagen Inc.) as per manufacture's protocols. R-SAT's were generally performed with 50 ng/well of receptor and 20 ng/well of Beta-galactosidase plasmid DNA. All receptor and G-protein constructs used were in the pSI mammalian expression vector (Promega Inc) as described in U.S. Pat. No. 5,707,798. The 5HT2A receptor gene was amplified by nested PCR from brain cDNA using the oligodeoxynucleotides based on the published sequence (see Saltzman et. al. Biochem. Biophys. Res. Comm. 181:1469-78 (1991)). Large-scale transfections, cells were transfected for 12-16 hours, then trypsinized and frozen in DMSO. Frozen cells were later thawed, plated at 10,000-40,000 cells per well of a 96 well plate that contained drug. With both methods, cells were then grown in a humidified atmosphere with 5% ambient CO2 for five days. Media was then removed from the plates and marker gene activity was measured by the addition of the beta-galactosidase substrate ONPG (in PBS with 5% NP-40). The resulting colorimetric reaction was measured in a spectrophotometric plate reader (Titertek Inc.)at […]. All data were analyzed using the computer program XLFit (IDBSm). Efficacy is the percent maximal repression compared to repression by a control compound (ritanserin in the case of 5HT2A). pIC50 is the negative of the log(IC50), where IC50 is the calculated concentration in Molar that produces 50% maximal repression.
(§2) R-SAT assays (as described in Example 42) were carried out with cells transfected with receptors (listed below) to determine the receptor selectivity profile for compound 26HCH16D. 5HT2A inverse agonist data (IC50 nM; % efficacy) were derived from detailed dose response curves (7 points in triplicate).

For a further assay, the target named is T4, alpha1a/D (Rattus norvegicus, UniProt P23944).
T4 construct: expressed in transfected cells
T4 sequence (P23944 whole entry): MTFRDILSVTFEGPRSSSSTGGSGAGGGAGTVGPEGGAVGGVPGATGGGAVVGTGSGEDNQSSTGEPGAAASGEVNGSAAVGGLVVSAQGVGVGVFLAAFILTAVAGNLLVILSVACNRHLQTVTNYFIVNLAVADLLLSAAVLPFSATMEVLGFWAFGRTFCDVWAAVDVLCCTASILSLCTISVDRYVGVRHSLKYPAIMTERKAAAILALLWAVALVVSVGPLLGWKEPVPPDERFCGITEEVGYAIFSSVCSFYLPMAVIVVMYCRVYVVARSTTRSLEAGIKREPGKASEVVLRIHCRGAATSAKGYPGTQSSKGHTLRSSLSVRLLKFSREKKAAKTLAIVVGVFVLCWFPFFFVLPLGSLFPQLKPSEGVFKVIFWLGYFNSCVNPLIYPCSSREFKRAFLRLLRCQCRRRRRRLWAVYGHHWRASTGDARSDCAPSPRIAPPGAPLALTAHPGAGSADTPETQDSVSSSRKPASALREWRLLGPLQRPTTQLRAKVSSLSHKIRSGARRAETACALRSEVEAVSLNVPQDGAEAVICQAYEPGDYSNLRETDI
Description: R-SAT selectivity profile. The format is cell-based. On the procedure: as §1, §2

Another assay has as its target T5, alpha1c/A (Homo sapiens, UniProt P35348).
T5 construct: expressed in transfected cells
T5 sequence (P35348 1-466): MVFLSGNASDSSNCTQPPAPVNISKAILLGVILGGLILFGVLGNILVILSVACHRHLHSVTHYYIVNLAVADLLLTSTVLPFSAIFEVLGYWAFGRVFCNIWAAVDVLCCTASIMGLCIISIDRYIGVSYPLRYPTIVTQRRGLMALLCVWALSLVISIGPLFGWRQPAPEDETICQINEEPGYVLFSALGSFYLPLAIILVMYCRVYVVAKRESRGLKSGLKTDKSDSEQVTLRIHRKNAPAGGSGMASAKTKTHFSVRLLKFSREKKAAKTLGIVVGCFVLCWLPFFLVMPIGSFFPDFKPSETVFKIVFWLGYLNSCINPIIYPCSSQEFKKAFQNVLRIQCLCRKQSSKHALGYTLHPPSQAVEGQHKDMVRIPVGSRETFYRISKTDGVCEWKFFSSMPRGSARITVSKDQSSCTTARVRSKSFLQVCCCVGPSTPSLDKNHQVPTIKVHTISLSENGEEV
Description: R-SAT selectivity profile. The format is cell-based. On the procedure: as §1, §2

A further assay concerns the target 5HT1E (Homo sapiens, UniProt P28566). As to the kind of experiment: R-SAT selectivity profile. The following applies: agonist. Also on record: expressed in transfected cells. The format is cell-based. Here is the method:
as §1, §2

The target in a further assay is 5HT2B (Homo sapiens, UniProt P41595). Description: R-SAT selectivity profile. The format is cell-based. Also on record: expressed in transfected cells. On the procedure: as §1, §2
Chain of 5HT2B (P41595 whole entry): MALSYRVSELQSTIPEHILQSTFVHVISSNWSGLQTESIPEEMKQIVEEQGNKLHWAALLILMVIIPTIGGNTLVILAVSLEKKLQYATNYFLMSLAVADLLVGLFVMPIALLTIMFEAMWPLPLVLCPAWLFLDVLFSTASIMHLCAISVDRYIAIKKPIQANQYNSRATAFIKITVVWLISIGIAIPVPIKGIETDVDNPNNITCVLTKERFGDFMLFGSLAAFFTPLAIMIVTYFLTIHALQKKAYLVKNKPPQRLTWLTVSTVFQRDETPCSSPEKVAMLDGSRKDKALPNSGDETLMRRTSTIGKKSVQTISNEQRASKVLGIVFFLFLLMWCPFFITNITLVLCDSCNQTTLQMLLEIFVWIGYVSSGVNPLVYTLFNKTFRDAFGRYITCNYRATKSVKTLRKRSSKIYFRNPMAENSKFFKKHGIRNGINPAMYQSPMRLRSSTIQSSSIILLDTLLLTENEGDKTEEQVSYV
Another assay concerns the target H1 (Homo sapiens, UniProt P35367). Description: R-SAT selectivity profile. Also on record: expressed in transfected cells. The format is cell-based. On the procedure:
as §1, §2

Another assay addresses D2 (Homo sapiens, UniProt P14416). Description: R-SAT selectivity profile. Details: expressed in transfected cells. It counts as cell-based. Here is the method:
as §1, §2

For the next assay, the target named is T6, 5HT2C (Homo sapiens, UniProt P28335).
T6 sequence (P28335 33-458): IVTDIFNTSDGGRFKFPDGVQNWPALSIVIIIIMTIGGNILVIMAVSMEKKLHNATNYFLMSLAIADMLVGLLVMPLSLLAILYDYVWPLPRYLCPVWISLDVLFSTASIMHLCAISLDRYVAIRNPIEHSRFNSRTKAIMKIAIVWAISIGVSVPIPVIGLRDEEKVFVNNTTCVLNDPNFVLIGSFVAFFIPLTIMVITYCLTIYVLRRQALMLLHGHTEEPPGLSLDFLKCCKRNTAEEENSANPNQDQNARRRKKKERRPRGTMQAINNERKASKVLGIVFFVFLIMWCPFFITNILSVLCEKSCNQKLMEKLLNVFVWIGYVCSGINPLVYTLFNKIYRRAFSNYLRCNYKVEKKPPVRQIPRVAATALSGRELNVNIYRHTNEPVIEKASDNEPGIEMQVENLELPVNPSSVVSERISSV
As to the kind of experiment: R-SAT selectivity profile. It counts as cell-based. Also on record: expressed in transfected cells. Here is the method:
as §1, §2

The target in assay [2] is T7, 5HT1A (Homo sapiens, UniProt P08908).
T7 sequence (P08908 1-422): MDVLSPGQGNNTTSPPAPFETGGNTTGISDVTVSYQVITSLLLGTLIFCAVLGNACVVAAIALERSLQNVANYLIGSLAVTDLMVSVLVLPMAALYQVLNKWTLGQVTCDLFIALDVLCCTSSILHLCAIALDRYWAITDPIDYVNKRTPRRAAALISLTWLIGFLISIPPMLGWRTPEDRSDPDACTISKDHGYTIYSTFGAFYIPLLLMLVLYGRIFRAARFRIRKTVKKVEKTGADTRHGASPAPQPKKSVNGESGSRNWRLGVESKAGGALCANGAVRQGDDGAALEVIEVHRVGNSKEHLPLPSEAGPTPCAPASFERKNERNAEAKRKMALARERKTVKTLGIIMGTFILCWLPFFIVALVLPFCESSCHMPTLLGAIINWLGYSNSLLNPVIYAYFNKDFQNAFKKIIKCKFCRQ
Description: R-SAT selectivity profile. Also on record: expressed in transfected cells. It counts as cell-based. To be noted: agonist. Here is the method: as §1, §2

Another assay has as its system Male NSA mice. Description: In vivo determination of behavioral effects (motor activity, MK-801 hyperactivity). The following applies: p.o.; minimum effective dose vs vehicle control. On the procedure:
Male NSA mice (Harlan; San Deigo, Calif.) were used as subjects. Mice weighed 20-30 g. Animals were housed 8/cage in the One Cage system (One Cage; Lab Products, Inc., Seaford, Del.) with bedding (⅛ inch Bed “O” Cob; Harlan Teklad, Madison, Wis.) in a room with controlled temperature 22±3° C. and a 12 hour light:dark cycle (lights on 6 am). Water and standard rodent chow (Harlan Teklad) were continuously available in the home cage. For testing, plastic locomotor activity cages (20×20×30 cm; AccuScan Instruments, Columbus, Ohio) were equipped with photocell beams for monitoring horizontal activity. Data were collected using Versamax computer software (AccuScan Instruments). For determination of spontaneous activity, test compounds were administered alone (s.c. 10 min or p.o. 30 min before the session). For hyperactivity experiments, mice were injected with 0.3 mg/kg MK-8011.p. 15 min precession (the peak dose for producing hyperactivity in an inverted-U dose-effect curve as determined in pilot experiments) in combination with vehicle or test compound. Motor activity data were collected during a 15 min session in a lit room. Mice had no prior exposure to the motor cages. Each dose or dose combination was tested in a separate group of mice (n=8). Distance traveled (cm) was calculated and averaged across animals in a group. […]

Structures can show the parent of a compound that is named as a salt. Where two headings read alike, the source gives them in different places.

Chain of H1 (P35367 whole entry): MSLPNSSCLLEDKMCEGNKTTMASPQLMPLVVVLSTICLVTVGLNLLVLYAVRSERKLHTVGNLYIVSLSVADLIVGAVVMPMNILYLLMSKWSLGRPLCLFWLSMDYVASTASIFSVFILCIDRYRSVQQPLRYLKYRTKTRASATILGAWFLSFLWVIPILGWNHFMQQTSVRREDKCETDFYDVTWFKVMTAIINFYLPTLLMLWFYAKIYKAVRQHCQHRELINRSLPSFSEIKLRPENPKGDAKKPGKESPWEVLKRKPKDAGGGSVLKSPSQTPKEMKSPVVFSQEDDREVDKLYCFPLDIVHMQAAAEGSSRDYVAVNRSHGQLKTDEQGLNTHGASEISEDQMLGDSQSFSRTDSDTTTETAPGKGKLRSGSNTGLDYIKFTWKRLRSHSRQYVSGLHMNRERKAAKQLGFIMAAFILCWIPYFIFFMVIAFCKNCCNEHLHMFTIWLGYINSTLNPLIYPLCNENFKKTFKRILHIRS
Chain of D2 (P14416 whole entry): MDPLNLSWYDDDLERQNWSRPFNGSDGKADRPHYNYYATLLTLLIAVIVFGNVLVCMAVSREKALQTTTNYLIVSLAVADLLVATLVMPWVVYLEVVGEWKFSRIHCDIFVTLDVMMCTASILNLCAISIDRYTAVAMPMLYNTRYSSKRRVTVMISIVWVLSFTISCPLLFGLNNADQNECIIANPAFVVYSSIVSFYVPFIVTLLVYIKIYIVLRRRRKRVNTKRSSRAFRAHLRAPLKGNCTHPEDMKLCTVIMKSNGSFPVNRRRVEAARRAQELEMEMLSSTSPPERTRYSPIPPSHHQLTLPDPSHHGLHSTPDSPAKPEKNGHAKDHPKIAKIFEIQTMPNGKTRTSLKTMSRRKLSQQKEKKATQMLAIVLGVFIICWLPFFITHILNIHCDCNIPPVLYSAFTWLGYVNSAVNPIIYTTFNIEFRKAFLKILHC
T1 sequence (P28223 whole entry): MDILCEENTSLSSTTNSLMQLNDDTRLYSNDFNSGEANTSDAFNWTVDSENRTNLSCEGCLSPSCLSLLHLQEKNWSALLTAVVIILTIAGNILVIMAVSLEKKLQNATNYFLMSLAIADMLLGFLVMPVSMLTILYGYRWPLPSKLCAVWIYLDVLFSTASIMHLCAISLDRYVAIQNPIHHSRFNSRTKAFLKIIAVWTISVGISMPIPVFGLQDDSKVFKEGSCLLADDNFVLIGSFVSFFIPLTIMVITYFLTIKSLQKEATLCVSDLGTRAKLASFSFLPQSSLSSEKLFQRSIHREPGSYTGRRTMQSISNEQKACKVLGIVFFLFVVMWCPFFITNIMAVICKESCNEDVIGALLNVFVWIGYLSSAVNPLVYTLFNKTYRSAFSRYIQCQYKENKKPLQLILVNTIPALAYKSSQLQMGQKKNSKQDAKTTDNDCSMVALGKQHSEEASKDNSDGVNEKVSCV
Chain of 5HT1E (P28566 whole entry): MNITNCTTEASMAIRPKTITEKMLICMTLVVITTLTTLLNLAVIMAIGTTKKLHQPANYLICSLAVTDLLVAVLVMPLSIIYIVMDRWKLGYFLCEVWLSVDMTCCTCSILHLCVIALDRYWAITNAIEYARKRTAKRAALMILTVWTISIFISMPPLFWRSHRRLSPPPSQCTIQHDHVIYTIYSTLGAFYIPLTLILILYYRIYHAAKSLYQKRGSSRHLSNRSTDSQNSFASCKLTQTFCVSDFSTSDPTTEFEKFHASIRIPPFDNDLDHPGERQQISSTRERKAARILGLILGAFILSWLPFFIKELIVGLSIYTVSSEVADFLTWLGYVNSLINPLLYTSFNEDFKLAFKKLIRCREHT

For `Cc1ccc(CN(C(=O)NCc2ccccc2)C2CCN(Cc3ccccc3)CC2)cc1` [Example 26HCH16D, N-((4-Methylphenyl)methyl)-N-(1-(phenylmethyl)piperidin-4-yl)-N′-phenylmethylcarbamide hydrochloride], the IC50 at 5-HT2A receptor (IC50, Inverse Agonist, 7 points in triplicate) was 900 pM. The “selectivity as 5-HT2A inverse agonist” value on 5-HT2A receptor (in words) is recorded as “highly selective”. For the same molecule, at 5-HT2A receptor (read-out: % efficacy), the Emax was 79%. The Efficacy result is listed as “nr (nr=activity less than 30% at all doses tested (3, 30, 300, 3000 nM), therefore EC50/IC50 greater than 3000 nM)” at alpha1b/B (agonist); “nr (nr=activity less than 30% at all doses tested (3, 30, 300, 3000 nM), therefore EC50/IC50 greater than 3000 nM)” on alpha1b/B (antagonist); “nr (nr=activity less than 30% at all doses tested (3, 30, 300, 3000 nM), therefore EC50/IC50 greater than 3000 nM)” on 5HT1A [1]; “nr (nr=activity less than 30% at all doses tested (3, 30, 300, 3000 nM), therefore EC50/IC50 greater than 3000 nM)” on alpha1a/D (agonist); “nr (nr=activity less than 30% at all doses tested (3, 30, 300, 3000 nM), therefore EC50/IC50 greater than 3000 nM)” at alpha1a/D (antagonist); “nr (nr=activity less than 30% at all doses tested (3, 30, 300, 3000 nM), therefore EC50/IC50 greater than 3000 nM)” on alpha1c/A (agonist). The Efficacy result is reported as “nr (nr=activity less than 30% at all doses tested (3, 30, 300, 3000 nM), therefore EC50/IC50 greater than 3000 nM)” on 5HT1E; “nr (nr=activity less than 30% at all doses tested (3, 30, 300, 3000 nM), therefore EC50/IC50 greater than 3000 nM)” at H1 (agonist); “nr (nr=activity less than 30% at all doses tested (3, 30, 300, 3000 nM), therefore EC50/IC50 greater than 3000 nM)” on D2 (agonist); “nr (nr=activity less than 30% at all doses tested (3, 30, 300, 3000 nM), therefore EC50/IC50 greater than 3000 nM)” at 5HT1A [2]. The “initial concentration at which at least 30% efficacy observed” value amounted to 3000 nM on alpha1c/A (Antagonist, 4 dose profiling); 3000 nM at 5HT2B (Antagonist, 4 dose profiling); 3000 nM at H1 (Antagonist, 4 dose profiling); 3000 nM at D2 (Antagonist, 4 dose profiling); 3000 nM on 5HT2C (Inverse Agonist, 4 dose profiling). Besides, the actual efficacy figure at alpha1c/A (antagonist) is reported as 46%; on 5HT2B (antagonist), 60%; at H1 (antagonist), 30%; at D2 it was 73%; on 5HT2C (inverse agonist), 79%.
As to `CC(C)COc1ccc(CC(=O)N(Cc2ccc(F)cc2)C2CCN(CCCN3C(=O)OC[C@@H]3C(C)C)CC2)cc1.O=C(O)C(=O)O` [Example 117NLS01, N-(4-Fluorobenzyl)-2-(4-isobutoxyphenyl)-N-{1-[3-(4-(S)-isopropyl-2-oxo-oxazolidin-3-yl)propyl]piperidin-4-yl}acetamide, oxalate], the Emax at 5-HT2A receptor (120 h, read-out: 5HT2A % INH) came out at 104%. Also, the IC50 on 5-HT2A receptor (Table 5, read-out: 5HT2A pIC50 (converted)) is 200 pM. In addition, the “MED in vivo po” value with Male NSA mice is 1 mg/kg.
